Broadly, the Km is the concentration of substrate that gives half-maximal velocity.

Results on eleven molecules are retold here after patent publication US20130065792A1, “INDUCIBLE EXPRESSION OF SGLT5, METHODS AND KITS USING THE SAME” (BOEHRINGER INGELHEIM INTERNATIONAL GMBH, priority 2011, published 2013).

Series [1] concerns the target T1, SGLT5 (Homo sapiens, UniProt A0PJK1).
T1 construct: expressed in transfected cells; host or cells: T-Rex 293 cells (Invitrogen), stably transfected with pT-Rex-Dest30-hSGLT5; expression induced with tetracycline; deposited clone DSM ACC3096
T1 sequence (A0PJK1 1-596): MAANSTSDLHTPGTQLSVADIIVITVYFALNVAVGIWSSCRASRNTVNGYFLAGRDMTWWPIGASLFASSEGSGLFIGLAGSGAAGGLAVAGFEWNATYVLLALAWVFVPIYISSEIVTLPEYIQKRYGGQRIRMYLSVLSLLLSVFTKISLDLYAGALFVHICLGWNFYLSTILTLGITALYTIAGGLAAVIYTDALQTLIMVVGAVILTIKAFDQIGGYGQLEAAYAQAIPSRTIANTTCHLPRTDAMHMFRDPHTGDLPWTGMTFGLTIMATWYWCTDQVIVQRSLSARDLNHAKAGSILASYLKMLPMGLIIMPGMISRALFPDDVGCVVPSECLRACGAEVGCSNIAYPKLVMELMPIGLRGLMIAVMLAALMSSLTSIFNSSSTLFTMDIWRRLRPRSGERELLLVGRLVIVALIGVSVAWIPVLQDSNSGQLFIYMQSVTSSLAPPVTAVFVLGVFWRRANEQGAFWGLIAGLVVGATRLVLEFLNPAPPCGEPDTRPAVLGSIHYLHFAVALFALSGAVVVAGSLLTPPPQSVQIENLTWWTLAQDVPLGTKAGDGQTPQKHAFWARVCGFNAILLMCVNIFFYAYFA
In words: Time dependent specific uptake of [14C]-monosaccharides by T-Rex 293-hSGLT5 cells (FIG. 3). Type of series: cell-based. The conditions noted are these: 1 mM monosaccharide, 5-60 min, tetracycline induced T-Rex 293-hSGLT5 cells. As for the experimental part:
[^14C]-saccharide uptake experiments: 30000 cells per well were seeded in white poly-D-lysine-coated 96-well plates and incubated over night. The expression of hSGLT5 was induced 24 h before the start of uptake experiments by the addition of 1 μg/ml tetracycline to the cells. For the assay, cells were washed twice with 250 μl pre-treatment buffer [140 mM cholinchloride in basal buffer (10 mM HEPES; 5.4 mM KCl; 2.8 mM CaCl2*2 H2O; 1.2 mM MgSO4*7 H2O; 0.1% BSA, pH 7.4) and incubated in 200 μl pre-treatment buffer for 25 min at 37° C. Pre-treatment buffer was removed and 200 μl uptake buffer was added to the cells (140 mM NaCl in basal buffer containing 1 mM cold monosaccharide [either glucose, fructose, mannose, galactose or alphamethyl glucopyranoside (AMG), respectively]+0,6 μCi [^14C]-labelled monosaccharide [either glucose, fructose, mannose, galactose or alpha-methyl glucopyranoside (AMG), respectively] (Hartmann Analytics, Mannheim, Germany) and 10 μM Cytochalasin B. After incubation for 5, 10, 30 and 60 minutes at 37° C., the cells were washed three times with 300 μl PBS (Cambrex, Verviers, Belgium) and then lysed in 0.1 N NaOH with intermittent shaking for 5 min. The lysate was mixed with 200 μl MikroScint 40 Scintillator, shaken for 15 min and counted for radioactivity in the TopCount NXT (Canberra Packard, Schwadorf, Austria). Specific sugar uptake was determined by subtracting non-specific uptake of each sugar (in the presence of choline chloride) from total uptake of the same sugar (in the presence of sodium chloride).
Furthermore, a protocol was established to measure the specific uptake of monosaccharides e.g. mannose, fructose, glucose, AMG and galactose by hSGLT5, It could be shown that the transporter takes up mannose and fructose with high affinity and hardly transports glucose, AMG and galactose (FIG. 3). […] Specific uptake was calculated by subtracting the respective monosaccharide uptake in the presence of choline chloride from the total uptake of the same monosaccharide in the presence of sodium chloride.

Series [2] deals with T1, SGLT5. In words: Km-determination for mannose, fructose and AMG uptake by T-Rex 293-hSGLT5 cells. Type of series: cell-based. The conditions noted are these: for Km: specific (sodium dependent) uptake of [14C]-sugar, 4 h, T-Rex 293-hSGLT5 cells, three assays in parallel, read-out: Affinity for SGLT5 (Km). As for the experimental part:
(§1) [^14C]-monosaccharide uptake inhibition experiments: Stable cell lines overexpressing human SGLT-5 were used for the sodium-dependent monosaccharide transport inhibition assay. Cells were pre-incubated in 200 μl uptake buffer (10 mM HEPES, 137 mM NaCl, 5.4 mM KCl, 2.8 mM CaCl2, 1.2 mM MgCl2, 50 μg/ml Gentamycin, 0.1% BSA) for 25 minutes at 37° C. 10 μM Cytochalasin B and test compound was added at different concentrations 15 minutes before the initiation of the uptake experiment.
(§2) The uptake reaction was started by the addition of 0.6 μCi [^14C]-labelled monosaccharide i.e. [^14C]-labeled alpha-methyl glucopyranoside (AMG), glucose, fructose, mannose or myo-inositol, in 0.1 mM AMG (or the respective non-radioactive monosaccharide).
After incubation for 60 minutes at 37° C., the cells were washed three times with 300 μl PBS (Cambrex, Verviers, Belgium) and then lysed in 0.1 N NaOH with intermittent shaking for 5 minutes. The lysate was mixed with 200 μl MicroScint 40 and shaken for 15 minutes and counted for radioactivity in the TopCount NXT (Canberra Packard, Schwadorf, Austria). The cells were pre-incubated in pre-treatment buffer (uptake buffer containing choline chloride instead of sodium chloride) for 25 minutes prior to addition of uptake buffer.
Km-determination for mannose, fructose and Alpha-Methylglucose (AMG) uptake by SGLT5: The uptake of Mannose, Fructose and AMG was assayed as described under “[^14C]-monosaccharide uptake inhibition experiments” in the absence (nonspecific uptake) or presence of sodium (Total uptake) in the buffer at different concentrations of the respective monosaccharide for 4 h. From the difference of Total uptake and Nonspecific uptake the Specific uptake was calculated and the Km was determined using the Program Graph Pad Prism (LaJolla, Calif., USA).
(§3) The measured affinity curves measured in three assays run in parallel are shown in FIG. 4A (for mannose), 4B (for fructose) and 4C (for AMG).

Series [3] has as its target T1, SGLT5. In words: [14C]-monosaccharide uptake inhibition assay, [14C]-mannose as substrate, stable cell lines overexpressing human SGLT-5. Type of series: cell-based. To be noted: for IC50 / pIC50 ± SEM for inhibition of hSGLT-5: [14C]-mannose as substrate. As for the experimental part: [^14C]-monosaccharide uptake inhibition experiments: Stable cell lines overexpressing human SGLT-5 were used for the sodium-dependent monosaccharide transport inhibition assay. […] The uptake reaction was started by the addition of 0.6 μCi [^14C]-labelled monosaccharide i.e. [^14C]-labeled alpha-methyl glucopyranoside (AMG), glucose, fructose, mannose or myo-inositol, in 0.1 mM AMG (or the respective non-radioactive monosaccharide). After incubation for 60 minutes at 37° C., the cells were washed three times with 300 μl PBS (Cambrex, Verviers, Belgium) and then lysed in 0.1 N NaOH with intermittent shaking for 5 minutes. The lysate was mixed with 200 μl MicroScint 40 and shaken for 15 minutes and counted for radioactivity in the TopCount NXT (Canberra Packard, Schwadorf, Austria). The cells were pre-incubated in pre-treatment buffer (uptake buffer containing choline chloride instead of sodium chloride) for 25 minutes prior to addition of uptake buffer. A dose-response curve was fitted to an empirical four-parameter model using XL Fit (IDBS, Guildford, UK) to determine the inhibitor concentration at half-maximal response (IC50). Human SGLT-5 was identified to be a mannose transporter and the inhibition of hSGLT-5 was assessed by a newly established [^14C]-mannose uptake assay.

Substrate in series [4]: O=C(CO)[C@@H](O)[C@H](O)[C@H](O)CO
The series can be described thus: Km-determination for mannose, fructose and AMG uptake by T-Rex 293-hSGLT5 cells. The series is classed as cell-based, human. The conditions noted are these: other: specific (sodium dependent) uptake of [14C]-sugar, 4 h, three assays in parallel, 37.0 °C. As for the experimental part:
as §1, §2
After incubation for 60 minutes at 37° C., the cells were washed three times with 300 μl PBS (Cambrex, Verviers, Belgium) and then lysed in 0.1 N NaOH with intermittent shaking for 5 minutes. The lysate was mixed with 200 μl MicroScint 40 and shaken for 15 minutes and counted for radioactivity in the TopCount NXT (Canberra Packard, Schwadorf, Austria). […]
as §3

The mark [5] stands for this setting: 60 minutes at 37° C., at least three independent experiments, read-out: Mean IC50 for inhibition of hSGLT-5.

Where two headings read alike, the source gives them in different places.

On to `COC1OC(CO)C(O)C(O)C1O` (stereo not drawn) [AMG, alpha-methyl glucopyranoside], for which the “specific uptake / affinity for hSGLT5 (in words)” value at SGLT5 [1] is “very low affinity”. At SGLT5 [2] (ratio of Km values), the “Km fold higher than the Km for fructose” value is “at least 5 fold” and the “Km fold higher than the Km for mannose” value was “at least 33 fold”. Further, the Michaelis constant (Km) on SGLT5 [2] amounted to 10.1 mM.

Regarding `OC[C@H]1O[C@@H](c2ccc(F)c(Cc3cc4ccccc4s3)c2)[C@H](O)[C@@H](O)[C@@H]1O` [ASP-1941], at SGLT5 [3] (setting [5]), the IC50 was 740 nM.

`Cc1ccc([C@@H]2O[C@H](CO)[C@@H](O)[C@H](O)[C@H]2O)cc1Cc1ccc(-c2ccc(F)cc2)s1` [Canagliflozin]: the IC50 on SGLT5 [3] (setting [5]) was 1700 nM. The pIC50 ± SEM for inhibition of hSGLT-5 on SGLT5 [3] (given with negative sign) turned out to be 5.77 ± 0.12.

For `OC[C@H]1O[C@@H](c2ccc(Cl)c(Cc3ccc(O[C@H]4CCOC4)cc3)c2)[C@H](O)[C@@H](O)[C@@H]1O` [Compound A, D-glucitol, 1,5-anhydro-1-C-[4-chloro-3-[[4-[[(3S)-tetrahydro-3-furanyl]oxy]phenyl]methyl]phenyl]-, (1S)-], the IC50 at SGLT5 [3] (setting [5]) is 1100 nM; at SGLT5 [3] (given with negative sign, read-out: pIC50 ± SEM for inhibition of hSGLT-5 (converted)), 1050 nM.

As for `Cc1cc(O)c(C(=O)CCc2ccc3occc3c2)c(O[C@@H]2O[C@H](CO)[C@@H](O)[C@H](O)[C@H]2O)c1` [Compound T1095A], at SGLT5 [3] (setting [5]), the IC50 was determined as 1100 nM. Moreover, on SGLT5 [3] (given with negative sign), the pIC50 ± SEM for inhibition of hSGLT-5 was determined as 5.97 ± 0.19.

For the molecule `CCOc1ccc(Cc2cc([C@@H]3O[C@H](CO)[C@@H](O)[C@H](O)[C@H]3O)ccc2Cl)cc1` [Dapagliflozin], the IC50 on SGLT5 [3] (setting [5]) was 820 nM.

For `O=C(CO)[C@@H](O)[C@H](O)[C@H](O)CO` [Fructose], the “specific uptake / affinity for hSGLT5 (in words)” value on SGLT5 [1] is recorded as “high affinity”. For the same molecule, on SGLT5 [2] (ratio of Km values), the “Km fold higher than the Km for mannose” value is reported as 6.67 fold. For the same molecule, the Km at SGLT5 [2] is not above 2 mM.

For the molecule `O=C(CCc1ccc(O)cc1)c1c(O)cc(O)cc1O[C@@H]1O[C@H](CO)[C@@H](O)[C@H](O)[C@H]1O` [Phlorizin], at SGLT5 [3] (setting [5]), the IC50 amounted to 1500 nM.

On to `Cc1c(Cc2ccc(OC(C)C)cc2)c(O[C@@H]2O[C@H](CO)[C@@H](O)[C@H](O)[C@H]2O)nn1C(C)C` [Remogliflozin], for which the “selectivity over SGLT-2” value on SGLT5 [3] (SGLT-5 versus SGLT-2) was less than 15 fold. Besides, on SGLT5 [3] (setting [5]), the IC50 stood at 190 nM.

With `COc1ccc(Cc2ccccc2O[C@@H]2O[C@H](CO)[C@@H](O)[C@H](O)[C@H]2O)cc1` [Sergliflozin], the IC50 at SGLT5 [3] (setting [5]) was 1100 nM. On SGLT5 [3] (given with negative sign), this molecule registered a pIC50 ± SEM for inhibition of hSGLT-5 of 5.95.

B1: SGLT5 (Homo sapiens) (protein)
chain: T1 sequence (A0PJK1 1-596)
notes: expressed in transfected cells; host or cells: T-Rex 293 cells (Invitrogen), stably transfected with pT-Rex-Dest30-hSGLT5; expression induced with tetracycline; deposited clone DSM ACC3096
As to B1, the Km in series [4] was 2.0 mM.
